Assay results from patent publication US20040116456A1, “Remedies for psychoneurosis” (priority 2001, published 2004).
Structures can show the parent of a compound that is named as a salt.

System: restless legs syndrome
Experiment: Oral preparation given to patients diagnosed with restless legs syndrome
Type: in vivo, human
Settings: 10 μg oral soft capsule; for time until abnormal sensation disappeared after taking the preparation: RLS patient
Method: A solution containing 10 μg of (−)-17-(cyclopropylmethyl)-3,14β-dihydroxy-4,5α-epoxy-6β[N-methyl-trans-3-(3-furyl)acrylamide]morphinan hydrochloric acid salt 1 [drawing 10]
was encapsulated into a soft capsule made of gelatin to obtain an oral preparation. This oral preparation was administered to two patients who had been diagnosed as restless legs syndrome. Both of the two patients complained abnormal itchy sensation on the lower limbs and sleep is sometimes disturbed. By taking the oral preparation, the abnormal sensation disappeared 2 hours after taking the preparation in one patient, and 4 hours after taking the preparation in another patient.

SMILES: CN(C(=O)/C=C/c1ccoc1)[C@@H]1CC[C@@]2(O)C3Cc4ccc(O)c5c4[C@@]2(CCN3CC2CC2)[C@H]1O5 (single isomer, unassigned; (-)) [Compound 1, (−)-17-(cyclopropylmethyl)-3,14β-dihydroxy-4,5α-epoxy-6β[N-methyl-trans-3-(3-furyl)acrylamide]morphinan hydrochloric acid salt]
- time until abnormal sensation disappeared after taking the preparation (another patient): 4 h
- time until abnormal sensation disappeared after taking the preparation (one patient): 2 h
- duration of the effect for eliminating the abnormal sensation (both of the two RLS patients): ≥ 24 h
- sleep disturbance in the night (both of the two RLS patients): sleep disturbance did not occur
- therapeutic effect against restless legs syndrome (two RLS patients): clearly had therapeutic effect against restless legs syndrome
